Experimental data reported in US8557821B2 (priority 2009, dated 2013).
Values joined by “and” are separate entries in the source; they are usually repeats but may differ in a detail not shown here. Equal values may be shown once.

Columns and labels:
Phytophthora infestans = test: whole plant or invertebrate; assay type: in vivo; settings: in Solanum lycopersicum, foliar, read-out: disease control
Plasmopara viticola = test: Plasmopara viticola/Grape/Leaf Disc Preventative (Grape Downy Mildew); assay type: in vivo; settings: foliar, grape vine leaf disks, inoculated 1 day after application, assessed 6-8 days after application, read-out: disease control
Protocol: Plasmopara viticola/Grape/Leaf Disc Preventative (Grape Downy Mildew)
Grape vine leaf disks are placed on water agar in multiwell plates (24-well format) and sprayed with the formulated test compound diluted in water. The leaf disks are inoculated with a spore suspension of the fungus 1 day after application. The inoculated leaf disks are incubated at 19° C. and 80% rh under a light regime of 12 h light/12 h darkness in a climate cabinet and the activity of a compound is assessed as percent disease control compared to untreated when an appropriate level of disease damage appears in untreated check leaf disks (6-8 days after application).

Cc1cc(C(F)(F)F)nn1CC(=O)N1CCC(c2nc(NC(=O)[C@@H]3CCCc4ccccc43)cs2)CC1 [I.g.001, (R)-1,2,3,4-tetrahydro-naphthalene-1-carboxylic acid (2-{1-[2-(5-methyl-3-trifluoromethyl-pyrazol-1-yl)-acetyl]-piperidin-4-yl}-thiazol-4-yl)amide]
pest or weed control at 200 ppm (Phytophthora infestans): ≥ 80% | pest or weed control at 200 ppm (Plasmopara viticola): ≥ 80% | melting point: 175 °C

Cc1cc(C(F)(F)F)nn1CC(=O)N1CCC(c2nc(NC(=O)C3CCCc4ccccc43)cs2)CC1 (centres unmarked) [I.g.011, 1,2,3,4-tetrahydro-naphthalene-1-carboxylic acid (2-{1-[2-(5-methyl-3-trifluoromethyl-pyrazol-1-yl)-acetyl]-piperidin-4-yl}-thiazol-4-yl)amide]
pest or weed control at 200 ppm (Phytophthora infestans): ≥ 80% | pest or weed control at 200 ppm (Plasmopara viticola): ≥ 80% | melting point: 179 to 181 °C and 179.2 to 181.3 °C

Cc1cc(C(F)(F)F)nn1CC(=O)N1CCC(c2nc(NC(=O)OC3CCCc4ccccc43)cs2)CC1 (centres unmarked) [I.g.013, (2-{1-[2-(5-methyl-3-trifluoromethyl-pyrazol-1-yl)-acetyl]-piperidin-4-yl}-thiazol-4-yl)-carbamic acid 1,2,3,4-tetrahydro-naphthalen-1-yl ester]
pest or weed control at 200 ppm (Phytophthora infestans): ≥ 80% | pest or weed control at 200 ppm (Plasmopara viticola): ≥ 80%

Cc1cc(C(F)(F)F)nn1CC(=O)N1CCC(c2nc(NC(=O)Nc3ccccc3)cs2)CC1 [I.g.024, 1-(2-{1-[2-(5-methyl-3-trifluoromethyl-pyrazol-1-yl)-acetyl]-piperidin-4-yl}-thiazol-4-yl)-3-phenyl-urea]
pest or weed control at 200 ppm (Phytophthora infestans): ≥ 80% | pest or weed control at 200 ppm (Plasmopara viticola): ≥ 80% | melting point: 192.6 °C

Cc1ccc(C)c(CC(=O)N2CCC(c3nc(NC(=O)C4CCCc5ccccc54)cs3)CC2)c1 (centres unmarked) [I.g.136, 1,2,3,4-tetrahydro-naphthalene-1-carboxylic acid (2-{1-[2-(2,5-dimethylphenyl)-acetyl]-piperidin-4-yl}-thiazol-4-yl)-amide]
pest or weed control at 200 ppm (Phytophthora infestans): ≥ 80%

Cc1ccc(C)c(CS(=O)(=O)N2CCC(c3nc(NC(=O)c4ccccc4)cs3)CC2)c1 [I.g.246, N-{2-[1-(2,5-Dimethyl-phenylmethanesulfonyl)-piperidin-4-yl]-thiazol-4-yl}-benzamide]
pest or weed control at 200 ppm (Plasmopara viticola): ≥ 80% | melting point: 173 to 175 °C

Cc1ccccc1CC(=O)N1CCC(c2nc(NC(=O)C3CCCc4ccccc43)cs2)CC1 (centres unmarked) [I.g.386, 1,2,3,4-tetrahydro-naphthalene-1-carboxylic acid {2-[1-(2-o-tolyl-acetyl)-piperidin-4-yl]thiazol-4-yl}-amide]
pest or weed control at 200 ppm (Phytophthora infestans): ≥ 80% | pest or weed control at 200 ppm (Plasmopara viticola): ≥ 80% | melting point: 174 to 175 °C

Cc1cc(C(F)(F)F)nn1CC(=O)N1CCC(c2nc(NC(=O)c3cccc(F)c3O)cs2)CC1 [I.g.501, 3-fluoro-2-hydroxy-N-(2-{1-[2-(5-methyl-3-trifluoromethyl-pyrazol-1-yl)-acetyl]-piperidin-4-yl}-thiazol-4-yl)-benzamide]
pest or weed control at 200 ppm (Phytophthora infestans): ≥ 80% | pest or weed control at 200 ppm (Plasmopara viticola): ≥ 80%

Cc1cc(C(F)(F)F)nn1CC(=O)N1CCC(c2nc(NC(=O)c3cccc(Br)c3O)cs2)CC1 [I.g.502, 3-bromo-2-hydroxy-N-(2-{1-[2-(5-methyl-3-trifluoromethyl-pyrazol-1-yl)-acetyl]-piperidin-4-yl}-thiazol-4-yl)-benzamide]
melting point: 193 to 195 °C

Cc1cc(C(F)(F)F)nn1CC(=O)N1CCC(c2nc(NC(=O)c3ccccc3O)cs2)CC1 [I.g.503, 2-hydroxy-N-(2-{1-[2-(5-methyl-3-trifluoromethyl-pyrazol-1-yl)-acetyl]-piperidin-4-yl}-thiazol-4-yl)-benzamide]
pest or weed control at 200 ppm (Phytophthora infestans): ≥ 80% | pest or weed control at 200 ppm (Plasmopara viticola): ≥ 80%

Cc1ccc(S(=O)(=O)Nc2ccccc2C(=O)Nc2csc(C3CCN(C(=O)Cn4nc(C(F)(F)F)cc4C)CC3)n2)cc1 [I.g.508, N-(2-{1-[2-(5-methyl-3-trifluoromethyl-pyrazol-1-yl)-acetyl]-piperidin-4-yl}-thiazol-4-yl)-2-(toluene-4-sulfonylamino)-benzamide]
pest or weed control at 200 ppm (Phytophthora infestans): ≥ 80% | pest or weed control at 200 ppm (Plasmopara viticola): ≥ 80%

COc1cccc(O)c1C(=O)Nc1csc(C2CCN(C(=O)Cn3nc(C(F)(F)F)cc3C)CC2)n1 [I.g.509, 2-methoxy-6-hydroxy-N-(2-{1-[2-(5-methyl-3-trifluoromethyl-pyrazol-1-yl)-acetyl]-piperidin-4-yl}-thiazol-4-yl)-benzamide]
pest or weed control at 200 ppm (Phytophthora infestans): ≥ 80% | pest or weed control at 200 ppm (Plasmopara viticola): ≥ 80%

Cc1cc(C(F)(F)F)nn1CC(=O)N1CCC(c2nc(NC(=O)c3c(O)cccc3F)cs2)CC1 [I.g.510, 2-fluoro-6-hydroxy-N-(2-{1-[2-(5-methyl-3-trifluoromethyl-pyrazol-1-yl)-acetyl]-piperidin-4-yl}-thiazol-4-yl)-benzamide]
pest or weed control at 200 ppm (Phytophthora infestans): ≥ 80% | pest or weed control at 200 ppm (Plasmopara viticola): ≥ 80%

COc1cccc(C(=O)Nc2csc(C3CCN(C(=O)Cn4nc(C(F)(F)F)cc4C)CC3)n2)c1O [I.g.511, 3-methoxy-2-hydroxy-N-(2-{1-[2-(5-methyl-3-trifluoromethyl-pyrazol-1-yl)-acetyl]-piperidin-4-yl}-thiazol-4-yl)-benzamide]
pest or weed control at 200 ppm (Phytophthora infestans): ≥ 80%

Cc1cc(C(F)(F)F)nn1CC(=O)N1CCC(c2nc(N(C)C(=O)C3CCCc4ccccc43)cs2)CC1 (centres unmarked) [I.h.011, 1,2,3,4-tetrahydro-naphthalene-1-carboxylic acid methyl-(2-{1-[2-(5-methyl-3-trifluoromethyl-pyrazol-1-yl)-acetyl]-piperidin-4-yl}-thiazol-4-yl)-amide]
pest or weed control at 200 ppm (Phytophthora infestans): ≥ 80%

Cc1cc(C(F)(F)F)nn1CC(=O)N1CCN(c2nc(NC(=O)C3CCCc4ccccc43)cs2)CC1 (centres unmarked) [I.n.011, 1,2,3,4-Tetrahydro-naphthalene-1-carboxylic acid (2-{4-[2-(5-methyl-3-trifluoromethyl-pyrazol-1-yl)acetyl]-piperazin-1-yl}-thiazol-4-yl)amide]
pest or weed control at 200 ppm (Phytophthora infestans): ≥ 80% | pest or weed control at 200 ppm (Plasmopara viticola): ≥ 80% | melting point: 207 to 209 °C

Cc1cc(C(F)(F)F)nn1CC(=O)N1CCN(c2nc(NC(=O)c3ccccc3)cs2)CC1 [I.n.021, N-(2-{4-[2-(5-methyl-3-trifluoromethyl-pyrazol-1-yl)-acetyl]-piperazin-1-yl}-thiazol-4-yl)-benzamide]
pest or weed control at 200 ppm (Phytophthora infestans): ≥ 80% | pest or weed control at 200 ppm (Plasmopara viticola): ≥ 80%
